Reference: patent US20240268388A1, “AGRICULTURAL AND HORTICULTURAL FUNGICIDAL COMPOSITION” (NIPPON SODA CO., LTD., priority 2021, published 2024)

Tests used:
[1] = system: soybean rust pathogen (Phakopsora pachyrhizi); test: Soybean rust control test (leaf discs); type: in vivo
Protocol: Compounds of component (I) and component (II) were dissolved in dimethyl sulfoxide and diluted with water to the prescribed concentration to prepare a chemical agent solution. A mixture of the prescribed concentration of the chemical agent solution and sterile water was prepared on a microplate, and leaf discs cut from soybean leaves were floated on the microplate. Uredospores of soybean rust pathogen (Phakopsora pachyrhizi) were inoculated and incubated at 25° C. for 9 days. The area percentage of lesions was determined by observing uredospore-forming lesions on the leaf discs, and the control value was calculated. The control value was calculated by the following formula:
Control value (%)=100−{Area percentage of lesions in treatment plot/Area percentage of lesions in untreatment plot}×100.
The results are shown in Tables 8 to 18, along with the expected values calculated as below. Each expected values was calculated from the fungicidal efficacy of a single application of compound of component (I) and the fungicidal efficacy of a single application of compound of component (II) by using Colby's equation:
[formula] • where E represents the expected value of the control value for the composition containing component (I) and component (II), M represents the control value (%) when the component (I) is used alone, and N represents the control value (%) when the component (II) is used alone. When the measured control value for the composition containing component (I) and component (II) is greater than the expected value E, the composition containing component (I) and composition (II) should exert a synergistic effect.

[2] = system: wheat leaf blight pathogen (Septoria tritici); test: Fungicidal test for wheat leaf blight (microplate, turbidity at 405 nm); type: cell-based; details: for inhibition at 6.3 ppm / inhibition at 12.5 ppm / inhibition at 25 ppm / inhibition at 50 ppm / inhibition at 100 ppm: component (I) alone
Protocol: Compounds of component (I) and component (II) were dissolved in dimethyl sulfoxide at 10,000 ppm and diluted with water to the prescribed concentration to prepare a chemical agent solution. A mixture of the prescribed concentration of the chemical agent solution, wheat leaf blight pathogen (Septoria tritici) conidia, and malt extract was prepared on a microplate and incubated at 20° C. in the dark for 3 days. The turbidity at a wavelength of 405 nm was measured with a microplate reader, and the growth of wheat leaf blight pathogen was compared with that of no treatment control to determine the growth inhibition rate. The results are shown in Tables 2 to 7, along with the expected values calculated as below.
Each expected value was calculated from the fungicidal efficacy of a single application of the compound of component (I) and the fungicidal efficacy of a single application of compound of component (II) by using Colby's equation (S. R. Colby, Calculating synergistic and antagonistic responses of herbicide combinations, Weeds, 15, 20-22 pp (1967)).
[formula] • where E represents the expected value of the growth inhibition rate (%) for the composition containing component (I) and component (II), M represents the growth inhibition rate (%) when the component (I) is used alone, and N represents the growth inhibition rate (%) when the component (II) is used alone. When the measured growth inhibition rate (%) for the composition containing component (I) and component (II) is greater than the expected value E, the composition containing components (I) and component (II) should exert a synergistic effect.

[3] = Table 15, component (II) alone (component (I): None): Azoxystrobin 0.0001, Inpyrfluxam 0.000025, Chlorothalonil 0.0063, Difenoconazole 0.000025, Cyproconazole 0.000025, Tebuconazole 0.000025, Trifloxystrobin 0.0001, Pyraclostrobin 0.0001, Fluazinam 0.0063, Fluxapyroxad 0.000025, Prothioconazole 0.000025, Florylpicoxamid 0.0001, Benzovindiflupyr 0.000025, Mancozeb 0.0063 ppm
[4] = Table 18, component (II) alone (component (I): None): Azoxystrobin 0.0001, Inpyrfluxam 0.000025, Chlorothalonil 0.0063, Difenoconazole 0.000025, Cyproconazole 0.000025, Tebuconazole 0.000025, Trifloxystrobin 0.0001, Pyraclostrobin 0.0001, Fluazinam 0.0063, Fluxapyroxad 0.000025, Prothioconazole 0.000025, Florylpicoxamid 0.0001, Benzovindiflupyr 0.000025, Mancozeb 0.0063 ppm
[5] = Zymoseptoria tritici, component (II) alone, 0.02 ppm, read-out: growth inhibition rate
[6] = Zymoseptoria tritici, component (II) alone, read-out: growth inhibition rate
[7] = Table 14, component (II) alone (component (I): None): Inpyrfluxam 0.00025, Chlorothalonil 0.006, Thiophanate-methyl 0.0001, Tebuconazole 0.000025, Trifloxystrobin 0.0001, Fluazinam 0.006, Prothioconazole 0.000025, Florylpicoxamid 0.0001, Metominostrobin 0.0004 ppm
[8] = Table 16, component (II) alone (component (I): None): Inpyrfluxam 0.000025, Chlorothalonil 0.006, Thiophanate-methyl 0.0001, Tebuconazole 0.000025, Trifloxystrobin 0.0001, Fluazinam 0.006, Prothioconazole 0.000025, Florylpicoxamid 0.0001, Metominostrobin 0.0004 ppm
[9] = Table 17, component (II) alone (component (I): None): Inpyrfluxam 0.000026, Chlorothalonil 0.02, Thiophanate-methyl 0.0004, Tebuconazole 0.0001, Trifloxystrobin 0.0001, Fluazinam 0.006, Prothioconazole 0.000025, Florylpicoxamid 0.0001, Metominostrobin 0.0004 ppm
[10] = Zymoseptoria tritici, component (II) alone, 0.04 ppm, read-out: growth inhibition rate
[11] = component (I) alone, 0.0063 ppm
[12] = Zymoseptoria tritici, read-out: growth inhibition rate
[13] = Zymoseptoria tritici, component (II) alone, 0.25 ppm, read-out: growth inhibition rate
[14] = Zymoseptoria tritici, component (II) alone, 16 ppm, read-out: growth inhibition rate
[15] = Zymoseptoria tritici, component (II) alone, 1 ppm, read-out: growth inhibition rate
[16] = Zymoseptoria tritici, component (II) alone, 0.004 ppm, read-out: growth inhibition rate

In the case of `Cn1cc(C(=O)Nc2cccc3c2[C@@H]2CC[C@H]3C2=C(Cl)Cl)c(C(F)F)n1` (racemic) [Benzovindiflupyr, benzovindiflupyr, reference compound], the control value [1, 3] is reported as 50%, the control value [1, 4] is reported as 50% and the growth inhibition rate ([2]; component (II) alone, 0.01 ppm) is reported as 48%. The growth inhibition rate ([2]; component (II) alone, 0.04 ppm) was 65%.

Compound `Fc1ccc([C@]2(Cn3cncn3)O[C@H]2c2ccccc2Cl)cc1` (racemic) [Epoxiconazole, epoxiconazole] has an inhibition at 0.02 ppm [2, 5] of 27% and an inhibition at 64 ppm [2, 6] of 94%.

`CO/C=C(/C(=O)OC)c1ccccc1Oc1cc(Oc2ccccc2C#N)ncn1` [Azoxystrobin, azoxystrobin, reference compound] was tested, and the control value [1, 3] was 33%, the control value [1, 4] was 0% and the growth inhibition rate ([2]; component (II) alone, 0.06 ppm) was 10%. The growth inhibition rate ([2]; component (II) alone, 1 ppm) was 10%.

With `Cn1cc(C(=O)Nc2ccc(F)cc2-c2ccc(Cl)c(Cl)c2)c(C(F)F)n1` [Bixafen, bixafen] the growth inhibition rate ([2]; component (II) alone, 0.004 ppm) was 27%.

`N#Cc1c(Cl)c(Cl)c(Cl)c(C#N)c1Cl` [Chlorothalonil, chlorothalonil, reference compound] showed a control value [1, 7] of 44%, a control value [1, 3] of 33% and a control value [1, 8] of 44%. For the same compound, the control value [1, 9] was 75%, the control value [1, 4] was 0% and the inhibition at 0.001 ppm ([2]; Zymoseptoria tritici, component (II) alone, 0.001 ppm, read-out: growth inhibition rate) was 8%. For the same compound, the inhibition at 0.02 ppm [2, 5] was 2% and the inhibition at 0.04 ppm [2, 10] was 9%.

With `CCON=C1CN(C(=O)Cc2ccc(-c3noc(C(F)(F)F)n3)cc2)C1` [Compound 1] the control value [1, 11] was 12%, the control value ([1]; component (I) alone, 0.025 ppm) was 48% and the control value ([1]; component (I) alone, 0.1 ppm) was 75%. For the same compound, the control value ([1]; component (I) alone, 0.4 ppm) was 99%, the inhibition at 6.3 ppm [2, 12] was 44% and the inhibition at 12.5 ppm [2, 12] was 58%. For the same compound, the inhibition at 25 ppm [2, 12] was 70%, the inhibition at 50 ppm [2, 12] was 82% and the inhibition at 100 ppm [2, 12] was 90%.

`O=C(Cc1ccc(-c2noc(C(F)(F)F)n2)cc1)N1CCC(=NOC2CCCCO2)CC1` (stereo not drawn) [Compound 2] gave an inhibition at 6.3 ppm [2, 12] of 34%, an inhibition at 12.5 ppm [2, 12] of 46% and an inhibition at 25 ppm [2, 12] of 52%. It also gave an inhibition at 50 ppm [2, 12] of 59% and an inhibition at 100 ppm [2, 12] of 62%.

In the case of `O=C(Cc1ccc(-c2noc(C(F)(F)F)n2)cc1)N1CC(=NOCC(F)F)C1` [Compound 4], the control value [1, 11] is reported as 18%, the control value ([1]; component (I) alone, 0.025 ppm) is reported as 28% and the control value ([1]; component (I) alone, 0.1 ppm) is reported as 67%. The control value ([1]; component (I) alone, 0.4 ppm) was 97%, the inhibition at 6.3 ppm [2, 12] was 36% and the inhibition at 12.5 ppm [2, 12] was 49%. It also gave an inhibition at 25 ppm [2, 12] of 75%, an inhibition at 50 ppm [2, 12] of 99% and an inhibition at 100 ppm [2, 12] of 100%.

`O=S(=O)([O-])[O-].[Cu+2]` [Copper sulfate, copper sulfate] showed a growth inhibition rate ([2]; component (II) alone, 0.25 ppm) of 8%, a growth inhibition rate ([2]; component (II) alone, 1 ppm) of 24% and a growth inhibition rate ([2]; component (II) alone, 16 ppm) of 73%.

`Cc1ccc(-c2c(Cl)nc(C#N)n2S(=O)(=O)N(C)C)cc1` [Cyazofamid, cyazofamid] showed an inhibition at 0.25 ppm [2, 13] of 0%, an inhibition at 4 ppm [2, 6] of 6% and an inhibition at 16 ppm [2, 14] of 4%. For the same compound, the inhibition at 64 ppm [2, 6] was 27%.

`CC(C1CC1)C(O)(Cn1cncn1)c1ccc(Cl)cc1` (stereo not drawn) [Cyproconazole, cyproconazole, reference compound] showed a control value [1, 3] of 33%, a control value [1, 4] of 0% and a control value ([1]; component (II) alone, 0.0001 ppm) of 88%. For the same compound, the inhibition at 0.25 ppm [2, 13] was 15% and the inhibition at 1 ppm [2, 15] was 1%.

`CC1COC(Cn2cncn2)(c2ccc(Oc3ccc(Cl)cc3)cc2Cl)O1` (stereo not drawn) [Difenoconazole, difenoconazole] showed a control value [1, 3] of 75%, a control value [1, 4] of 0% and an inhibition at 0.004 ppm [2, 16] of 75%. The inhibition at 0.04 ppm [2, 10] was 75%, the inhibition at 4 ppm [2, 6] was 85% and the inhibition at 16 ppm [2, 14] was 83%. The inhibition at 0.0002 ppm ([2]; Zymoseptoria tritici, component (II) alone, .0002 ppm (also printed 0002), read-out: growth inhibition rate) was 69%.

For `O=[N+]([O-])c1cc(C(F)(F)F)c(Cl)c([N+](=O)[O-])c1Nc1ncc(C(F)(F)F)cc1Cl` [Fluazinam, fluazinam, reference compound], the control value [1, 7] was 16%, the control value [1, 3] was 0% and the control value [1, 8] was 16%. It also gave a control value [1, 9] of 16%, a control value [1, 4] of 50% and an inhibition at 0.004 ppm [2, 16] of 0%.

In the case of `Cn1cc(C(=O)Nc2ccccc2-c2cc(F)c(F)c(F)c2)c(C(F)F)n1` [Fluxapyroxad, fluxapyroxad], the control value [1, 3] is reported as 0%, the control value [1, 4] is reported as 75% and the growth inhibition rate ([2]; component (II) alone, 0.001 ppm) is reported as 32%. It also gave a growth inhibition rate ([2]; component (II) alone, 0.02 ppm) of 63% and a growth inhibition rate ([2]; component (II) alone, 1 ppm) of 86%.

`CO/C=C(/C(=O)OC)c1ccccc1COc1cccc(C(F)(F)F)n1` [Picoxystrobin, picoxystrobin] gave a growth inhibition rate ([2]; component (II) alone, 0.02 ppm) of 2%, a growth inhibition rate ([2]; component (II) alone, 0.06 ppm) of 3% and a growth inhibition rate ([2]; component (II) alone, 0.25 ppm) of 8%. For the same compound, the growth inhibition rate ([2]; component (II) alone, 1 ppm) was 8%.

Compound `OC(Cc1ccccc1Cl)(Cn1nc[nH]c1=S)C1(Cl)CC1` (stereo not drawn) [Prothioconazole, prothioconazole, reference compound] has a control value [1, 7] of 44%, a control value [1, 3] of 33% and a control value [1, 8] of 44%. For the same compound, the control value [1, 9] was 44%, the control value [1, 4] was 50% and the inhibition at 0.02 ppm [2, 5] was 10%. The inhibition at 0.25 ppm [2, 13] was 7% and the inhibition at 1 ppm [2, 15] was 8%.

Work on `COC(=O)N(OC)c1ccccc1COc1ccn(-c2ccc(Cl)cc2)n1` [Pyraclostrobin, pyraclostrobin, reference compound] yielded a control value [1, 3] of 33%, a control value [1, 4] of 0% and an inhibition at 0.02 ppm [2, 5] of 24%. The inhibition at 0.25 ppm [2, 13] was 86%.

`CC(C)(C)C(O)(CCc1ccc(Cl)cc1)Cn1cncn1` (stereo not drawn) [Tebuconazole, tebuconazole, reference compound] showed a control value [1, 7] of 44%, a control value [1, 3] of 33% and a control value [1, 8] of 44%. It also gave a control value [1, 9] of 86%, a control value [1, 4] of 33% and an inhibition at 0.016 ppm ([2]; Zymoseptoria tritici, component (II) alone, 0.016 ppm, read-out: growth inhibition rate) of 0%. It also gave an inhibition at 0.063 ppm ([2]; Zymoseptoria tritici, component (II) alone, 0.063 ppm, read-out: growth inhibition rate) of 33% and an inhibition at 64 ppm [2, 6] of 76%.

With `CON=C(C(=O)OC)c1ccccc1CON=C(C)c1cccc(C(F)(F)F)c1` [Trifloxystrobin, trifloxystrobin, reference compound] the control value [1, 7] was 16%, the control value [1, 3] was 0% and the control value [1, 8] was 16%. For the same compound, the control value [1, 9] was 16%, the control value [1, 4] was 75% and the control value ([1]; component (II) alone, 0.0004 ppm) was 50%. It also gave an inhibition at 0.25 ppm [2, 13] of 21%.

For `CCCOC/C(=N\c1ccc(Cl)cc1C(F)(F)F)n1ccnc1` [Triflumizole, triflumizole], the inhibition at 0.06 ppm ([2]; Zymoseptoria tritici, component (II) alone, 0.06 ppm, read-out: growth inhibition rate) was 12% and the inhibition at 0.25 ppm [2, 13] was 11%.
